# Biological target: FP receptor (Homo sapiens (Human), UniProt P43088)
# Assay: In vitro test of inhibition of human FP receptor activity (PGF2α-induced calcium flux in FP-expressing CHEM1 cells)
# Assay type: cell-based
# Settings: PGF2α-induced (2 nM) calcium flux in FP-expressing CHEM1 cells; some as mean values from multiple determinations
# Text: Table 1 below lists the IC50 values from this assay for individual working examples of the invention (some as mean values from multiple independent individual determinations): […]
# Chain of FP receptor (P43088 whole entry): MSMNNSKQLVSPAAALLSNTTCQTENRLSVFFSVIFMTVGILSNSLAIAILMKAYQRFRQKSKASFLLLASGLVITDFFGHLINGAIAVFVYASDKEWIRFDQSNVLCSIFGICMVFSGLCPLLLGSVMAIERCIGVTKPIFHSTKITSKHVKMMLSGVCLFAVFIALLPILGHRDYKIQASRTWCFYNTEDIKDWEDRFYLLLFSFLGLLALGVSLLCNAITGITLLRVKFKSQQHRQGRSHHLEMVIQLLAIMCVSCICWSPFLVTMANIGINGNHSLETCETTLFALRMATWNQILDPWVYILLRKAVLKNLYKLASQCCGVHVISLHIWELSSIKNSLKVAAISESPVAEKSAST
row,IC50,SMILES
1,19 nM,"Cc1c(-c2ccccc2)nc2ccc(Br)cc2c1C(=O)NCC(CCC(=O)O)c1ccccc1F (single isomer, unassigned; (+)) [Example 177, (+)-5-{[(6-Bromo-3-methyl-2-phenylquinolin-4-yl)carbonyl]amino}-4-(2-fluorophenyl)pentanoic Acid]"
2,8.2 nM,"Cc1c(-c2ccccc2)nc2ccc(Br)cc2c1C(=O)NCC(CCC(=O)O)c1ccccc1OC(F)F (single isomer, unassigned; (+)) [Example 180, (+)-5-{[(6-Bromo-3-methyl-2-phenylquinolin-4-yl)carbonyl]amino}-4-[2-(difluoromethoxy)phenyl]pentanoic Acid]"
3,23 nM,"Cc1c(-c2ccccc2)nc2ccc(Br)cc2c1C(=O)NCC(CCC(=O)O)c1c(F)cccc1F (single isomer, unassigned; (+)) [Example 183, (+)-5-{[(6-Bromo-3-methyl-2-phenylquinolin-4-yl)carbonyl]amino}-4-(2,6-difluorophenyl)pentanoic Acid]"
4,17 nM,"Cc1c(-c2ccccc2)nc2ccc(Br)cc2c1C(=O)NCC(CCC(=O)O)c1cccc(F)c1Cl (single isomer, unassigned; (+)) [Example 186, (+)-5-{[(6-Bromo-3-methyl-2-phenylquinolin-4-yl)carbonyl]amino}-4-(2-chloro-3-fluorophenyl)pentanoic Acid]"
5,62 nM,"Cc1c(-c2ccccc2)nc2ccc(Br)cc2c1C(=O)NCC(c1ccccc1Cl)N(C)CC(=O)O (single isomer, unassigned; (+)) [Example 189, (+)-N-[2-{[(6-Bromo-3-methyl-2-phenylquinolin-4-yl)carbonyl]amino}-1-(2-chlorophenyl)ethyl]-N-methylglycine]"
6,42 nM,"Cc1c(-c2ccccc2)nc2ccc(Br)cc2c1C(=O)NCC(OCC(=O)O)c1ccccc1Cl (single isomer, unassigned; (+)) [Example 192, (+)-[2-{[(6-Bromo-3-methyl-2-phenylquinolin-4-yl)carbonyl]amino}-1-(2-chlorophenyl)ethoxy]acetic Acid]"
7,8 nM,"Cc1c(-c2ccccc2)nc2ccc(Br)cc2c1C(=O)NCC(SCC(=O)O)c1ccccc1Cl (single isomer, unassigned; (+)) [Example 195, (+)-{[2-{[(6-Bromo-3-methyl-2-phenylquinolin-4-yl)carbonyl]amino}-1-(2-chlorophenyl)ethyl]sulfanyl}acetic Acid]"
8,6.2 nM,"Cc1c(-c2ccccc2)nc2ccc(Br)cc2c1C(=O)NCC(CCC(=O)O)c1c(Cl)ccc(F)c1F (single isomer, unassigned; (+)) [Example 202, (+)-5-{[(6-Bromo-3-methyl-2-phenylquinolin-4-yl)carbonyl]amino}-4-(6-chloro-2,3-difluorophenyl)pentanoic Acid]"
9,22 nM,"Cc1c(-c2ccccc2)nc2ccc(Br)cc2c1C(=O)NCC(CCC(=O)O)c1ccccc1C(F)(F)F (single isomer, unassigned; (+)) [Example 205, (+)-5-{[(6-Bromo-3-methyl-2-phenylquinolin-4-yl)carbonyl]amino}-4-[2-(trifluoromethyl)phenyl]pentanoic Acid]"
10,11 nM,"Cc1ccc(F)cc1C(CCC(=O)O)CNC(=O)c1c(C)c(-c2ccccc2)nc2ccc(Br)cc12 (single isomer, unassigned; (+)) [Example 208, (+)-5-{[(6-Bromo-3-methyl-2-phenylquinolin-4-yl)carbonyl]amino}-4-(5-fluoro-2-methylphenyl)pentanoic Acid]"
11,6.1 nM,"Cc1c(-c2ccccc2)nc2ccc(Br)cc2c1C(=O)NCC(CCC(=O)O)c1ccccc1OC(F)(F)F (single isomer, unassigned; (+)) [Example 210, (+)-5-{[(6-Bromo-3-methyl-2-phenylquinolin-4-yl)carbonyl]amino}-4-[2-(trifluoromethoxy)phenyl]pentanoic Acid]"
12,4.4 nM,"O=C(O)CCC(CNC(=O)c1c(Cl)c(-c2ccccc2)nc2ccc(Br)cc12)c1ccccc1Cl (single isomer, unassigned; (+)) [Example 214, (+)-5-{[(6-Bromo-3-chloro-2-phenylquinolin-4-yl)carbonyl]amino}-4-(2-chlorophenyl)pentanoic Acid]"
13,19 nM,"O=C(O)CCC(CNC(=O)c1c(Cl)c(-c2ccccc2)nc2ccc(Br)cc12)c1ccccc1C(F)(F)F (single isomer, unassigned; (+)) [Example 217, (+)-5-{[(6-Bromo-3-chloro-2-phenylquinolin-4-yl)carbonyl]amino}-4-[2-(trifluoromethyl)phenyl]pentanoic Acid]"
14,8 nM,"C#Cc1ccc2nc(-c3ccccc3)c(C)c(C(=O)NCC(CCC(=O)O)c3ccccc3Cl)c2c1 (single isomer, unassigned; (+)) [Example 220, (+)-4-(2-Chlorophenyl)-5-{[(6-ethynyl-3-methyl-2-phenylquinolin-4-yl)carbonyl]amino}pentanoic Acid]"
15,32 nM,"Cc1c(-c2ccccc2)nc2ccc(Br)cc2c1C(=O)NCC(CCC(=O)O)c1c(Cl)ccc(Cl)c1Cl (single isomer, unassigned; (+)) [Example 235, (+)-5-{[(6-Bromo-3-methyl-2-phenylquinolin-4-yl)carbonyl]amino}-4-(2,3,6-trichlorophenyl)pentanoic Acid]"
16,16 nM,"Cc1c(-c2ccccc2)nc2ccc(Br)cc2c1C(=O)NCC(C)(CCCC(=O)O)c1ccccc1Cl (single isomer, unassigned; (+)) [Example 242, (+)-6-{[(6-Bromo-3-methyl-2-phenylquinolin-4-yl)carbonyl]amino}-5-(2-chlorophenyl)-5-methylhexanoic Acid]"

# Further lines, the molecule ahead of its results:
row,SMILES,IC50
1,"O=C(O)CCC(CNC(=O)c1c(Cl)c(-c2ccccc2)nc2ccc(Br)cc12)c1c(F)ccc(F)c1Cl (single isomer, unassigned; (+)) [Example 223, (+)-5-{[(6-Bromo-3-chloro-2-phenylquinolin-4-yl)carbonyl]amino}-4-(2-chloro-3,6-difluorophenyl)pentanoic Acid]",12 nM
2,"Cc1c(-c2ccccc2)nc2ccc(Br)cc2c1C(=O)NCC(CCC(=O)O)c1c(F)cccc1C(F)(F)F (single isomer, unassigned; (+)) [Example 226, (+)-5-{[(6-Bromo-3-methyl-2-phenylquinolin-4-yl)carbonyl]amino}-4-[2-fluoro-6-(trifluoromethyl)phenyl]pentanoic Acid]",100 nM
3,"Cc1c(-c2ccccc2)nc2ccc(Br)cc2c1C(=O)NCC(CCC(=O)O)c1c(F)c(F)cc(F)c1F (single isomer, unassigned; (+)) [Example 230, (+)-5-{[(6-Bromo-3-methyl-2-phenylquinolin-4-yl)carbonyl]amino}-4-(2,3,5,6-tetrafluorophenyl)pentanoic Acid]",49 nM
4,"Cc1c(-c2ccccc2)nc2ccc(Br)cc2c1C(=O)NCC(C)(CCCC(=O)O)c1ccccc1 (single isomer, unassigned; (+)) [Example 245, (+)-6-{[(6-Bromo-3-methyl-2-phenylquinolin-4-yl)carbonyl]amino}-5-methyl-5-phenylhexanoic Acid]",63 nM
5,"Cc1c(-c2ccccc2)nc2ccc(Br)cc2c1C(=O)NCC(C(=O)O)c1ccccc1 (single isomer, unassigned; (-)) [Example 2, (−)-3-{[(6-Bromo-3-methyl-2-phenylquinolin-4-yl)carbonyl]amino}-2-phenylpropanoic Acid]",160 nM
6,"COc1ccccc1C(CNC(=O)c1c(C)c(-c2ccccc2)nc2ccc(Br)cc12)C(=O)O (single isomer, unassigned; (-)) [Example 8, (−)-3-{[(6-Bromo-3-methyl-2-phenylquinolin-4-yl)carbonyl]amino}-2-(2-methoxyphenyl)propanoic Acid]",130 nM
7,"Cc1c(-c2ccccc2)nc2ccc(Br)cc2c1C(=O)NCC(C)(C(=O)O)c1ccccc1 (single isomer, unassigned; (-)) [Example 14, (−)-3-{[(6-Bromo-3-methyl-2-phenylquinolin-4-yl)carbonyl]amino}-2-methyl-2-phenylpropanoic Acid]",53 nM
8,"CCC(CNC(=O)c1c(C)c(-c2ccccc2)nc2ccc(Br)cc12)(C(=O)O)c1ccccc1 (single isomer, unassigned; (-)) [Example 17, (−)-2-({[(6-Bromo-3-methyl-2-phenylquinolin-4-yl)carbonyl]amino}methyl)-2-phenylbutanoic Acid]",260 nM
9,"Cc1c(-c2ccccc2)nc2ccc(Br)cc2c1C(=O)NCC(O)(C(=O)O)c1ccccc1 (single isomer, unassigned; (-)) [Example 21, (−)-3-{[(6-Bromo-3-methyl-2-phenylquinolin-4-yl)carbonyl]amino}-2-hydroxy-2-phenylpropanoic Acid]",170 nM
10,"Cc1c(-c2ccccc2)nc2ccc(Br)cc2c1C(=O)NCC(C)(C(=O)O)c1ccccc1F (single isomer, unassigned; (-)) [Example 31, (−)-3-{[(6-Bromo-3-methyl-2-phenylquinolin-4-yl)carbonyl]amino}-2-(2-fluorophenyl)-2-methylpropanoic Acid]",68 nM
11,"Cc1c(-c2ccccc2)nc2ccc(Br)cc2c1C(=O)NCC(C)(C(=O)O)c1c(F)cccc1F (single isomer, unassigned; (-)) [Example 34, (−)-3-{[(6-Bromo-3-methyl-2-phenylquinolin-4-yl)carbonyl]amino}-2-(2,6-difluorophenyl)-2-methylpropanoic Acid]",130 nM
12,"Cc1c(-c2ccccc2)nc2ccc(Br)cc2c1C(=O)NCC(C)(C(=O)O)c1ccccc1Cl (single isomer, unassigned; (-)) [Example 36, (−)-3-{[(6-Bromo-3-methyl-2-phenylquinolin-4-yl)carbonyl]amino}-2-(2-chlorophenyl)-2-methylpropanoic Acid]",810 nM
13,"Cc1c(-c2ccccc2)nc2ccc(Br)cc2c1C(=O)NCC(F)(C(=O)O)c1ccccc1 (single isomer, unassigned; (-)) [Example 39, (−)-3-{[(6-Bromo-3-methyl-2-phenylquinolin-4-yl)carbonyl]amino}-2-fluoro-2-phenylpropanoic Acid]",140 nM

# — patent US11136296B2, “Substituted N-arylethyl-2-arylquinoline-4-carboxamides and use thereof” (Bayer Aktiengesellschaft, priority 2017, dated 2021)
